Measurements: patent EP0973746B1, “SUBSTITUTED 3-CYANO QUINOLINES” (Wyeth Holdings Corporation, priority 1997, dated 1998)
Values joined by “and” are separate entries in the source; they are usually repeats but may differ in a detail not shown here. Equal values may be shown once.

target: recombinant human MEK 1 (MAPKK) and recombinant human ERK2 (MAPK); test: Mitogen Activated Protein Kinase (MAPK) assay, two component coupled MEK 1 / ERK2; type: biochemical; conditions: separate entries for the same compound = evaluated more than one time;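 also: MEK 1-activated ERK2 phosphorylates MBP or Myc peptide with 33P-ATP, filter capture and scintillation counting, inhibitor preincubated with ERK2 30 min at 0 °C, inhibition relative to uninhibited control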

IC50 | SMILES
> 100 µM | COc1cc2ncc(C#N)c(Nc3ccc(F)c(Cl)c3)c2cc1OCCCN1CCOCC1 [Example 125]
> 100 µM | COc1cc2ncc(C#N)c(Nc3cccc(Br)c3)c2cc1OCCCN1CCOCC1 [Example 126]
> 100 µM | CC#CC(=O)Nc1cccc(Nc2c(C#N)cnc3cc(OC)c(OC)cc23)c1 [Example 266, 4-[3-(2-Butynoylamino)phenylamino]1-6,7-dimethoxy-3-quinolinecarbonitrile]
16 µM | COc1cc2ncc(C#N)c(Nc3cc(C)c(O)c(C)c3)c2cc1OC [Example 288, 4-(4-Hydroxy-3,5-dimethyl-phenylamino)-6,7-dimethoxy-quinoline-3-carbinitile]
3.5 µM | COc1cc2ncc(C#N)c(Nc3ccc(O)cc3Cl)c2cc1OC [Example 296, 4-(2-Chloro-4-hydroxy-phenylamino)-6,7-dimethoxy-quinoline-3-carbonitrile]
< 1 µM | COc1cc2ncc(C#N)c(Nc3ccc(SC)cc3)c2cc1OC [Example 298, 6.7-Dimethoxy-4-(4-methylsulfanyl-phenylamino)-quinoline-3-carbonitrile]
> 100 µM | COc1cc2ncc(C#N)c(Nc3ccc(CCO)cc3)c2cc1OC [Example 299, 4-[4-(2-Hydroxy-ethyl)-phenylamino]-6,7-dimethoxy-quinoline-3-carbonitrile]
20 µM | COc1cc2ncc(C#N)c(Nc3ccc(O)cc3O)c2cc1OC [Example 300, 4-(2,4-Dihydroxy-phenylamino)-6,7-dimethoxy-quinoline-3-carbonitrile]
12 µM | COc1cc2ncc(C#N)c(Nc3ccccc3CCO)c2cc1OC [Example 301, 4-[2-(2-Hydroxy-ethyl)-phenylamino]-6,7-dimethoxy-quinoline-3-carbonitrile]
15 µM | COc1cc2ncc(C#N)c(Nc3cc(O)c(Cl)cc3F)c2cc1OCCCN1CCOCC1 [Example 323, 4-(4-Chloro-2-fluoro-5-hydroxy-phenylamino)-7-methoxy-6-(3-morpholin-4-yl)-propoxyl-quinoline-3-carbonitrile]
> 100 µM | COCc1cc2ncc(C#N)c(Nc3cccc(Br)c3)c2cc1COC [Example 325, 4-(3-Bromophenylamino)-6,7-di-methoxymethyl-3-quinolinecarbonitrile]
10 µM | COc1cc2ncc(C#N)c(Nc3cccc(CO)c3C)c2cc1OC [Example 333, 4-(3-Hydroxymethyl-2-methylphenylamino)-6,7-dimethoxyquinoline-3-carbonitrile]
65 µM and 50 µM | COc1cc2ncc(C#N)c(Nc3cccc(O)c3)c2cc1OC [Example 339, 4-(3-Hydroxy-phenylamino)-6,7-dimethoxy-quinoline-3-carbonitrile]
> 100 µM | COc1cc2ncc(C#N)c(Nc3ccc(C)cc3)c2cc1OC [Example 340, 4-(4-methyl-phenylamino)-6,7-dimethoxy-quinoline-3-carbonitrile]
> 100 µM | COc1cc([N+](=O)[O-])cc2c(Nc3ccc(C)c(O)c3)c(C#N)cnc12 [Example 341, 4-(3-Hydroxy-4-methyl-phenylamino)-8-methoxy-6-nitro-quinoline-3-carbonitrile]
60 µM | COc1ccc(Nc2c(C#N)cnc3c(OC)cc([N+](=O)[O-])cc23)cc1O [Example 343, 4-(3-hydroxy-4-methoxy-phenylamino)-8-methoxy-6-nitro-quinoline-3-carbonitrile]
> 100 µM | COc1cc(N)cc2c(Nc3ccc(C)c(O)c3)c(C#N)cnc12 [Example 344, 6-Amino-4-(3-hydroxy-4-methyl-phenylamino)-8-methoxy-quinoline-3-carbonitrile]
> 100 µM | COc1ccc(Nc2c(C#N)cnc3c(OC)cc(N)cc23)cc1O [Example 345, 6-Amino-4-(3-hydroxy-4-methoxy-phenylamino)-8-methoxy-quinoline-3-carbonitrile]
> 100 µM and 80 µM | CC#CC(=O)Nc1ccc2ncc(C#N)c(Nc3cccc(I)c3)c2c1 [Example 348, N-{3-Cyano-4-[(3-iodophenyl)amino]-6-quinolinyl}-2-butynamide]
> 100 µM | C=CC(=O)Nc1ccc2ncc(C#N)c(Nc3cccc(C)c3)c2c1 [Example 349, N-{3-Cyano-4-[(3-methylphenyl)amino]-6-quinolinyl]-2-propenamide]
40 µM | CC#CC(=O)Nc1ccc2ncc(C#N)c(Nc3cccc(Cl)c3)c2c1 [Example 353, N-{4-[(3-Chlorophenyl)amino]-3-cyano-6-quinolinyl}-2-butynamide]
> 100 µM | CC#CC(=O)Nc1ccc2ncc(C#N)c(Nc3cccc(C(C)C)c3)c2c1 [Example 354, N-{3-Cyano-4-[(3-isopropylphenyl)amino]-6-quinolinyl}-2-butynamide]
45 µM | C=CC(=O)Nc1ccc2ncc(C#N)c(Nc3cccc(C(C)C)c3)c2c1 [Example 355, N-{3-Cyano-4-[(3-isopropylphenyl)amino]-6-quinolinyl}-2-propenamide]
> 100 µM | CC(C)c1cccc(Nc2c(C#N)cnc3ccc(N)cc23)c1 [Example 356, 6-Amino-4-[(3-isopropylphenyl)amino]-3-quinolinecarbonitrile]
> 100 µM | CC(C)c1cccc(Nc2c(C#N)cnc3ccc([N+](=O)[O-])cc23)c1 [Example 357, 4-[(3-Isopropylphenyl)amino]-6-nitro-3-quinolinecarbonitrile]
> 100 µM | COc1cc2ncc(C#N)c(Nc3cccc(N=[N+]=[N-])c3)c2cc1OC [Example 359, 4-(3-Azido-phenylamino)-6,7-dimethoxy-quinoline-3-carbonitrile]
> 100 µM | CSc1cccc(Nc2c(C#N)cnc3ccc([N+](=O)[O-])cc23)c1 [Example 364, 4-[(3-Methylsulfanylphenyl)amino]-6-nitro-3-quinolinecarbonitrile]
4 µM | COc1cc2ncc(C#N)c(Nc3cccc(N(C)C)c3)c2cc1OC [Example 366, 4-(3-Dimethylamino-phenylamino)-6,7-dimethoxy-quinoline-3-carbonitrile]

More lines, now with the values behind:

SMILES | IC50
COCCOc1ccc2ncc(C#N)c(Nc3cccc(N(C)C)c3)c2c1OCCOC [Example 117] | 40 µM and 28 µM
N#Cc1cnc2ccc([N+](=O)[O-])cc2c1Nc1cccc(I)c1 [Example 131, 4-[(3-Iodophenyl)amino]-6-nitro-3-quinolinecarbonitrile] | > 100 µM
Cc1cccc(Nc2c(C#N)cnc3ccc([N+](=O)[O-])cc23)c1 [Example 134] | > 100 µM and 80 µM
N#Cc1cnc2ccc(N)cc2c1Nc1cccc(Cl)c1 [Example 136, 6-Amino-4-[(3-chlorophenyl)amino]-3-quinolinecarbonitrile] | 70 µM and > 100 µM
COc1cccc(Nc2c(C#N)cnc3ccc(N)cc23)c1 [Example 141, 6-Amino-4-[(3-methoxyphenyl)amino]-3-quinolinecarbonitrile] | 35 µM
N#Cc1cnc2ccc(N)cc2c1Nc1ccc(F)c(Cl)c1 [Example 149, 6-Amino-4-[(3-chloro-4-fluorophenyl)amino]-3-quinolinecarbonitrile] | 2 µM and 4 µM
N#Cc1cnc2ccc([N+](=O)[O-])cc2c1Nc1ccc(F)c(Cl)c1 [Example 150, 4-[(3-chloro-4-fluorophenyl)amino]-6-nitro-3-quinolinecarbonitrile] | > 100 µM
N#Cc1cnc2ccc([N+](=O)[O-])cc2c1Nc1ccc(Br)cc1 [Example 153, 4-[(4-Bromophenyl)amino]-6-nitro-3-quinolinecarbonitrile] | > 100 µM
N#Cc1cnc2ccc([N+](=O)[O-])cc2c1Nc1ccc(Sc2ccccc2)c(Cl)c1 [Example 159, 4-[(3-Chloro-4-thiophenoxyphenyl)amino]-6-nitro-3-quinolinecarbonitrile] | > 100 µM
CN(C)CC#CC(=O)Nc1ccc2ncc(C#N)c(Nc3ccc(F)c(Br)c3)c2c1 [Example 197, N-[4-[(3-Bromo-4-fluorophenyl)amino]-3-cyano-6-quinolinyl]-4-dimethylamino-2-butynamide] | 35 µM
COc1cc2ncc(C#N)c(Nc3ccc(C)c(Br)c3)c2cc1OC [Example 248, 4-(3-Bromo-4-methyl-phenylamino)-6.7-dimethoxy-quinoline-3-carbonitrile] | 8 µM
CCOc1cc2ncc(C#N)c(Nc3cccc(C(C)=O)c3)c2cc1OCC [Example 257, 4-(3-acetylphenylamino)-6,7-diethoxy-3-quinolinecarbonitrile] | > 100 µM
COc1cc2ncc(C#N)c(Nc3cccc(NC(C)=O)c3)c2cc1OC [Example 265, 4-(3-Acetamidophenylamino)-6,7-dimethoxy-3-quinolinecarbonitrile] | 20 µM
COc1cc2ncc(C#N)c(Nc3cccc(CCl)c3)c2cc1OC [Example 268, 4-[3-(Chloromethyl)phenylamino]-6,7-dimethoxy-3-quinolinecarbonitrile] | 15 µM
COc1cc2ncc(C#N)c(Nc3cccnc3)c2cc1OC [Example 293, 6,7-Dimethoxy-4-(pyridin-3-ylamino)-quinoline-3-carbonitrile] | > 100 µM
CCCOc1cc2ncc(C#N)c(Nc3cccc(Br)c3)c2cc1OCCC [Example 303, 4-(3-Bromophenylamino)-6.7-di-n-propoxy-3-quinolinecarbonitrile] | > 100 µM
CCCCOc1cc2ncc(C#N)c(Nc3cccc(Br)c3)c2cc1OCCCC [Example 305, 4-(3-Bromophenylamino)-6,7-di-n-butoxy-3-quinolinecarbonitrile] | > 100 µM
COc1cc([N+](=O)[O-])cc2c(Nc3ccc(Cl)cc3F)c(C#N)cnc12 [Example 342, 4-(4-chloro-2-fluoro-phenylamino)-8-methoxy-6-nitro-quinoline-3-carbonitrile] | > 100 µM
C=CC(=O)Nc1ccc2ncc(C#N)c(Nc3ccc(Sc4ccccc4)c(Cl)c3)c2c1 [Example 351, N-{4-[(3-Chloro-4-thiophenoxyphenyl)amino]-3-cyano-6-quinoliny}-2-propenamide] | 32 µM
N#Cc1cnc2ccc([N+](=O)[O-])cc2c1Nc1ccc(Cl)c(Cl)c1 [Example 362, 4-[(3.4-dichlorophenyl)amino]-6-nitro-3-quinolinecarbonitrile] | > 100 µM
N#Cc1cnc2ccc([N+](=O)[O-])cc2c1Nc1cccc(OC(F)(F)F)c1 [Example 365, 4-[(3-Trifluoromethoxyphenyl)amino]-6-nitro-3-quinolinecarbonitrile] | > 100 µM
